Assay results taken from patent US20260070945A1, “MACROCYCLIC IMMUNOMODULATORS” (Bristol-Myers Squibb Company, priority 2022, published 2026).
pIC50: −log10 of the molar value. Where a SMILES comes first, the peptide text is derived from it. Bridges are numbered along the chain shown (N, C = ends). [ ]: non-standard residue; d: D form. The star is where a group is joined. ξ: configuration not given here. Phe(3-CF3) = N[C@@H](Cc1cccc(C(F)(F)F)c1)C(=O)O; Phe(4-COOH) = N[C@@H](Cc1ccc(C(=O)O)cc1)C(=O)O; Bip = N[C@@H](Cc1ccc(-c2ccccc2)cc1)C(=O)O; Phe(3-Me) = Cc1cccc(C[C@H](N)C(=O)O)c1; NH(CH2)12COOH = O=C(O)CCCCCCCCCCCCN*; Val(3-OH) = CC(C)(O)[C@H](N)C(=O)O; Cha = N[C@@H](CC1CCCCC1)C(=O)O; Cit = NC(=O)NCCC[C@H](N)C(=O)O; Ile(3ξ) = CCC(C)[C@H](N)C(=O)O; Thr(3ξ) = CC(O)[C@H](N)C(=O)O; hSer = N[C@@H](CCO)C(=O)O; Carboxymethyl = O=C(O)C*; NMeA = CN[C@@H](C)C(=O)O; Aun = NCCCCCCCCCCC(=O)O; Dab = NCC[C@H](N)C(=O)O; AEEA = NCCOCCOCC(=O)O; Sar = CNCC(=O)O

Each compound was assayed against T1, PD-1/PD-L1 interaction (PE-labeled human PD-L1-Ig binding to Jurkat cell line over-expressing human PD-1) (Homo sapiens, UniProt Q15116) (assay: Jurkat-PD-1 Cell Binding High-Content Screening Assay (CBA)). Conditions: Jurkat-hPD-1 cells, PE-labeled PD-L1-Ig 20 nM final; read-out: Jurkat HPD1 PDL1 IC50.
T1 construct: expressed in transfected cells; host or cells: Jurkat
In short: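 Jurkat cells overexpressing human PD-1 (8×10^3/well, DMEM + 10% FCS) preincubated with compound 2 h at 37 °C, then PE-labelled human PD-L1-Ig (20 nM final) for 1 h. Cells fixed in paraformaldehyde with Hoechst 33342; bound PD-L1 quantified by high-content imaging.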

T1 sequence (Q15116 25-288): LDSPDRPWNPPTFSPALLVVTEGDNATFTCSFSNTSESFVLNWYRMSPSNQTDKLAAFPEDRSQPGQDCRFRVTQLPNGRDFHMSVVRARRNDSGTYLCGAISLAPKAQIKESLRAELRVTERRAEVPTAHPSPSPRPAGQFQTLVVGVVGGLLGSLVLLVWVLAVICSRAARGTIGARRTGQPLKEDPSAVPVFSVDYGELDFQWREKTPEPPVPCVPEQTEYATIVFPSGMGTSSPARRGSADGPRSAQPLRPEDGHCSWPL

SMILES | pIC50
CC(=O)NCCCC[C@@H]1NC(=O)[C@H](C(C)C)NC(=O)[C@H](CC2CCCCC2)NC(=O)[C@H](CCN)NC(=O)[C@@H](CC(C)C)NC(=O)[C@H](C)N(C)C(=O)[C@H](Cc2ccc(O)cc2)NC(=O)[C@H](Cc2ccc(-c3ccccc3)cc2)NC(=O)[C@H](C(C)C)NC(=O)[C@H](Cc2cccc(C)c2)NC(=O)[C@H](CC(=O)O)NC(=O)[C@H](Cc2ccc(OCC(=O)O)cc2)NC(=O)[C@H](C(C)O)NC(=O)CSC[C@@H](C(=O)N(C)CC(=O)NCCCCCCCCCCC(=O)O)NC1=O (stereo partly drawn) [Example 2274] ({CH2CO}-[Thr(3ξ)]Y(Carboxymethyl)D[Phe(3-Me)]V[Bip]Y[NMeA][dL][Dab][Cha]VK(Ac)C[Sar][Aun]-OH; thioether N-14) | 7.07
CCC(C)[C@@H]1NC(=O)[C@H](Cc2ccc(-c3ccccc3)cc2)NC(=O)[C@H](C(C)C)NC(=O)[C@H](Cc2c[nH]c3ccccc23)NC(=O)[C@H](CC(=O)O)NC(=O)[C@H](Cc2ccc(OCC(=O)O)cc2)NC(=O)[C@H](C(C)O)NC(=O)CSC[C@@H](C(=O)N[C@H](CC(N)=O)C(=O)NCCOCCOCC(=O)NCCCCCCCCCCC(=O)O)NC(=O)[C@H](CCCCN)NC(=O)[C@H](C(C)C)NC(=O)[C@H](CC2CCCCC2)NC(=O)[C@H](CCN)NC(=O)[C@@H](CC(C)C)NC(=O)[C@H](C)N(C)C1=O (stereo partly drawn) [Example 2208] ({CH2CO}-[Thr(3ξ)]Y(Carboxymethyl)DWV[Bip][Ile(3ξ)][NMeA][dL][Dab][Cha]VKC[dN][AEEA][Aun]-OH; thioether N-14) | 7.61
CCC(C)[C@@H]1NC(=O)[C@H](CC(C)C)NC(=O)[C@H](CCN)NC(=O)[C@@H](CC(C)C)NC(=O)[C@H](C)N(C)C(=O)[C@H](C(C)CC)NC(=O)[C@H](Cc2ccc(-c3ccccc3)cc2)NC(=O)[C@H](C(C)CC)NC(=O)[C@H](Cc2c[nH]c3ccccc23)NC(=O)[C@H](CC(=O)O)NC(=O)[C@H](Cc2ccc(OCC(=O)O)cc2)NC(=O)[C@H](C(C)O)NC(=O)CSC[C@@H](C(=O)N[C@H](CC(N)=O)C(=O)NCCOCCOCC(=O)NCCCCCCCCCCC(=O)O)NC(=O)[C@H](CO)NC1=O (stereo partly drawn) [Example 2080] ({CH2CO}-[Thr(3ξ)]Y(Carboxymethyl)DW[Ile(3ξ)][Bip][Ile(3ξ)][NMeA][dL][Dab]L[Ile(3ξ)]SC[dN][AEEA][Aun]-OH; thioether N-14) | 6.96

Now from value to compound:

pIC50 | SMILES
7.67 | Cc1cccc(C[C@@H]2NC(=O)[C@H](CC(=O)O)NC(=O)[C@H](Cc3ccc(OCC(=O)O)cc3)NC(=O)[C@H](C(C)O)NC(=O)CSC[C@@H](C(=O)N[C@@H](CCN)C(=O)NCCCCCCCCCCC(=O)O)NC(=O)[C@H](C(C)O)NC(=O)[C@H](C(C)C)NC(=O)[C@H](CC3CCCCC3)NC(=O)[C@H](CCN)NC(=O)[C@@H](CC(C)C)NC(=O)[C@H](C)N(C)C(=O)[C@H](Cc3ccc(OCC(=O)O)cc3)NC(=O)[C@H](Cc3ccc(-c4ccccc4)cc3)NC(=O)[C@H](CCCNC(N)=O)NC2=O)c1 (stereo partly drawn) [Example 2354] ({CH2CO}-[Thr(3ξ)]Y(Carboxymethyl)D[Phe(3-Me)][Cit][Bip]Y(Carboxymethyl)[NMeA][dL][Dab][Cha]V[Thr(3ξ)]C[Dab][Aun]-OH; thioether N-14)
7.36 | CC(C)C[C@@H]1NC(=O)[C@H](Cc2c[nH]c3ccccc23)NC(=O)[C@H](CC(=O)O)NC(=O)[C@H](Cc2ccc(C(=O)O)cc2)NC(=O)[C@H](Cc2ccc(OCC(=O)O)cc2)NC(=O)CSC[C@@H](C(=O)NCCOCCOCC(=O)NCCCCCCCCCCC(=O)O)NC(=O)[C@H](CCC(=O)O)NC(=O)[C@H](C(C)(C)O)NC(=O)[C@H](CC2CCCCC2)NC(=O)[C@H](CCN)NC(=O)[C@@H](CC(C)C)NC(=O)[C@H](C)N(C)C(=O)[C@H](C(C)C)NC(=O)[C@H](Cc2ccc(-c3ccccc3)cc2)NC1=O [Example 1114] ({CH2CO}-Y(Carboxymethyl)[Phe(4-COOH)]DWL[Bip]V[NMeA][dL][Dab][Cha][Val(3-OH)]EC[AEEA][Aun]-OH; thioether N-14)
6.73 | Cc1cccc(C[C@@H]2NC(=O)[C@H](CC(=O)O)NC(=O)[C@H](Cc3ccc(OCC(=O)O)cc3)NC(=O)[C@H]([C@@H](C)O)NC(=O)CSC[C@@H](C(=O)N[C@@H](CC(N)=O)C(=O)NCCCCCCCCCCC(=O)O)NC(=O)[C@H](CCC(=O)O)NC(=O)[C@H](C(C)(C)O)NC(=O)[C@H](CC3CCCCC3)NC(=O)[C@H](CCN)NC(=O)[C@@H](CC(C)C)NC(=O)[C@H](C)N(C)C(=O)[C@H](Cc3ccc(OCC(=O)O)cc3)NC(=O)[C@H](Cc3ccc(-c4ccccc4)cc3)NC(=O)[C@H](Cc3ccc(OCC(=O)O)cc3)NC2=O)c1 [Example 1419] ({CH2CO}-TY(Carboxymethyl)D[Phe(3-Me)]Y(Carboxymethyl)[Bip]Y(Carboxymethyl)[NMeA][dL][Dab][Cha][Val(3-OH)]ECN[Aun]-OH; thioether N-14)
7.57 | CC(C)C[C@@H]1NC(=O)[C@H](Cc2c[nH]c3ccccc23)NC(=O)[C@H](CC(=O)O)NC(=O)[C@H](Cc2ccc(C(=O)O)cc2)NC(=O)[C@H](Cc2ccc(OCC(=O)O)cc2)NC(=O)CSC[C@@H](C(=O)NCCOCCOCC(=O)NCCCCCCCCCCC(=O)O)NC(=O)[C@H](CCO)NC(=O)[C@H](C(C)C)NC(=O)[C@H](CC2CCCCC2)NC(=O)[C@H](CCN)NC(=O)[C@@H](CC(C)C)NC(=O)[C@H](C)N(C)C(=O)[C@H](CCC(N)=O)NC(=O)[C@H](Cc2ccc(-c3ccccc3)cc2)NC1=O [Example 2226] ({CH2CO}-Y(Carboxymethyl)[Phe(4-COOH)]DWL[Bip]Q[NMeA][dL][Dab][Cha]V[hSer]C[AEEA][Aun]-OH; thioether N-14)

Same assay, conditions: PE-labeled PD-L1-Ig 20 nM final, Jurkat-hPD-1 cells; read-out: Jurkat HPD1 PDL1 IC50

SMILES | pIC50
CCC(C)[C@@H]1NC(=O)[C@H](Cc2ccc(-c3ccccc3)cc2)NC(=O)[C@H](C(C)C)NC(=O)[C@H](Cc2c[nH]c3ccccc23)NC(=O)[C@H](CC(=O)O)NC(=O)[C@H](Cc2ccc(C(=O)O)cc2)NC(=O)[C@H](Cc2cnc[nH]2)NC(=O)CSC[C@@H](C(=O)N[C@@H](CCN)C(=O)NCCOCCOCC(=O)NCCCCCCCCCCC(=O)O)NC(=O)[C@H](C(C)O)NC(=O)[C@H](C(C)(C)O)NC(=O)[C@H](CC2CCCCC2)NC(=O)[C@H](CCN)NC(=O)[C@@H](CC(C)C)NC(=O)[C@H](C)N(C)C1=O (stereo partly drawn) [Example 2530] ({CH2CO}-H[Phe(4-COOH)]DWV[Bip][Ile(3ξ)][NMeA][dL][Dab][Cha][Val(3-OH)][Thr(3ξ)]C[Dab][AEEA][Aun]-OH; thioether N-14) | 8.62
Cc1cccc(C[C@@H]2NC(=O)[C@H](CC(=O)O)NC(=O)[C@H](Cc3ccc(C(=O)O)cc3)NC(=O)[C@H](C(C)O)NC(=O)CSC[C@@H](C(=O)N[C@@H](CCN)C(=O)NCCOCCOCC(=O)NCCOCCOCC(=O)NCCCCCCCCCCC(=O)O)NC(=O)[C@H](CCC(=O)O)NC(=O)[C@H](C(C)O)NC(=O)[C@H](CC3CCCCC3)NC(=O)[C@H](CCN)NC(=O)[C@@H](CC(C)C)NC(=O)[C@H](C)N(C)C(=O)[C@H](Cc3ccc(C(=O)O)cc3)NC(=O)[C@H](Cc3ccc(-c4ccccc4)cc3)NC(=O)[C@H](Cc3ccc(C(=O)O)cc3)NC2=O)c1 (stereo partly drawn) [Example 2528] ({CH2CO}-[Thr(3ξ)][Phe(4-COOH)]D[Phe(3-Me)][Phe(4-COOH)][Bip][Phe(4-COOH)][NMeA][dL][Dab][Cha][Thr(3ξ)]EC[Dab][AEEA][AEEA][Aun]-OH; thioether N-14) | 8.07

The remaining lines, values ahead:

pIC50 | SMILES
8.10 | Cc1cccc(C[C@@H]2NC(=O)[C@H](CC(=O)O)NC(=O)[C@H](Cc3ccc(OCC(=O)O)cc3)NC(=O)[C@H](CCN)NC(=O)CSC[C@@H](C(=O)N[C@@H](CCN)C(=O)NCCOCCOCC(=O)NCCOCCOCC(=O)NCCCCCCCCCCC(=O)O)NC(=O)[C@H](Cc3cnc[nH]3)NC(=O)[C@H](C(C)(C)O)NC(=O)[C@H](CC3CCCCC3)NC(=O)[C@H](CCN)NC(=O)[C@@H](CC(C)C)NC(=O)[C@H](C)N(C)C(=O)[C@H](Cc3ccc(OCC(=O)O)cc3)NC(=O)[C@H](Cc3ccc(-c4ccccc4)cc3)NC(=O)[C@H](Cc3ccc(OCC(=O)O)cc3)NC2=O)c1 [Example 2520] ({CH2CO}-[Dab]Y(Carboxymethyl)D[Phe(3-Me)]Y(Carboxymethyl)[Bip]Y(Carboxymethyl)[NMeA][dL][Dab][Cha][Val(3-OH)]HC[Dab][AEEA][AEEA][Aun]-OH; thioether N-14)
7.68 | CC(C)C[C@@H]1NC(=O)[C@H](Cc2c[nH]c3ccccc23)NC(=O)[C@H](CC(=O)O)NC(=O)[C@H](Cc2ccc(OCC(=O)O)cc2)NC(=O)[C@H](Cc2ccc(OCC(=O)O)cc2)NC(=O)CSC[C@@H](C(=O)N[C@@H](CCN)C(=O)NCCOCCOCC(=O)NCCCCCCCCCCC(=O)O)NC(=O)[C@H](CCC(=O)O)NC(=O)[C@H](C(C)(C)O)NC(=O)[C@H](CC2CCCCC2)NC(=O)[C@H](CCN)NC(=O)[C@@H](CC(C)C)NC(=O)[C@H](C)N(C)C(=O)[C@H](CCC(N)=O)NC(=O)[C@H](Cc2ccc(-c3ccccc3)cc2)NC1=O [Example 2516] ({CH2CO}-Y(Carboxymethyl)Y(Carboxymethyl)DWL[Bip]Q[NMeA][dL][Dab][Cha][Val(3-OH)]EC[Dab][AEEA][Aun]-OH; thioether N-14)
7.51 | CC(C)C[C@H]1NC(=O)[C@H](C)N(C)C(=O)[C@H](CCC(N)=O)NC(=O)[C@H](Cc2ccc(-c3ccccc3)cc2)NC(=O)[C@H](Cc2ccc(OCC(=O)O)cc2)NC(=O)[C@H](Cc2cccc(C(F)(F)F)c2)NC(=O)[C@H](CC(=O)O)NC(=O)[C@H](Cc2ccc(OCC(=O)O)cc2)NC(=O)[C@H](C)NC(=O)CSC[C@@H](C(=O)N[C@@H](CCN)C(=O)NCCCCCCCCCCCCC(=O)O)NC(=O)[C@H](CCC(=O)O)NC(=O)[C@H](C(C)(C)O)NC(=O)[C@H](CC2CCCCC2)NC(=O)[C@H](CCN)NC1=O [Example 2629] ({CH2CO}-AY(Carboxymethyl)D[Phe(3-CF3)]Y(Carboxymethyl)[Bip]Q[NMeA][dL][Dab][Cha][Val(3-OH)]EC[Dab]-{NH(CH2)12COOH}; thioether N-14)
